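A five-concentration, 48-hour dose response in 96-well plates underlies each endpoint, interpolated linearly between surrounding concentrations. At the GI50, growth is halved.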 Active and inactive are the calls of the source. No stated cut-off is given here; in the data, active = GI50 up to about 1.1 µM and inactive = higher.
Legend:
Assay in all cases: DTP human tumour cell line panel, 48 h
SK-OV-3 = tested on: SK-OV-3
NCI-H460 = tested on: NCI-H460
CCRF-CEM = tested on: CCRF-CEM
Hs-578T = tested on: Hs-578T
MDA-MB-231 = tested on: MDA-MB-231
MOLT-4 = tested on: MOLT-4
Malme-3M = tested on: Malme-3M
786-0 = tested on: 786-0
HOP-92 = tested on: HOP-92
UO-31 = tested on: UO-31
U-251 = tested on: U-251
HCT-116 = tested on: HCT-116
MDA-MB-435 = tested on: MDA-MB-435
NCI/ADR-RES = tested on: NCI/ADR-RES
MCF7 = tested on: MCF7
SR = tested on: SR
SK-MEL-5 = tested on: SK-MEL-5
OVCAR-8 = tested on: OVCAR-8
NCI-H522 = tested on: NCI-H522
COLO 205 = tested on: COLO 205
LOX IMVI = tested on: LOX IMVI
BT-549 = tested on: BT-549
IGROV-1 = tested on: IGROV-1
OVCAR-5 = tested on: OVCAR-5
HCT-15 = tested on: HCT-15
SW-620 = tested on: SW-620
PC-3 = tested on: PC-3
T47D = tested on: T47D
SK-MEL-2 = tested on: SK-MEL-2
SF-268 = tested on: SF-268
SN12C = tested on: SN12C
HOP-62 = tested on: HOP-62
OVCAR-3 = tested on: OVCAR-3
UACC-257 = tested on: UACC-257
MDA-N = tested on: MDA-N
SK-MEL-28 = tested on: SK-MEL-28
NCI-H23 = tested on: NCI-H23
NCI-H226 = tested on: NCI-H226
SF-539 = tested on: SF-539
CAKI-1 = tested on: CAKI-1
HT-29 = tested on: HT-29
HCC 2998 = tested on: HCC 2998
HL-60 = tested on: HL-60
SF-295 = tested on: SF-295
SNB-75 = tested on: SNB-75
TK-10 = tested on: TK-10
EKVX = tested on: EKVX
A549 = tested on: A549
UACC-62 = tested on: UACC-62
RPMI-8226 = tested on: RPMI-8226
OVCAR-4 = tested on: OVCAR-4
SNB-19 = tested on: SNB-19
K562 = tested on: K562
ACHN = tested on: ACHN
KM12 = tested on: KM12
M14 = tested on: M14
DU-145 = tested on: DU-145
RXF 393 = tested on: RXF 393

For CCOC(=O)C1(C(=O)OCC)[C@H](c2ccccc2)C2=NO[C@@H]3CCC[C@H]1[C@H]23, the GI50 (SK-OV-3) was 30.1 µM (inactive), the GI50 (NCI-H460) was 60.5 µM (inactive) and the GI50 (CCRF-CEM) was 35.2 µM (inactive). The GI50 (Hs-578T) was > 100 µM (inactive), the GI50 (MDA-MB-231) was 75.7 µM (inactive) and the GI50 (MOLT-4) was 15.4 µM (inactive). For the same compound, the GI50 (Malme-3M) was > 100 µM (inactive), the GI50 (786-0) was 82.2 µM (inactive) and the GI50 (HOP-92) was 54 µM (inactive). For the same compound, the GI50 (UO-31) was 57.4 µM (inactive), the GI50 (U-251) was 49.9 µM (inactive) and the GI50 (HCT-116) was 54.1 µM (inactive). The GI50 (MDA-MB-435) was 21.4 µM (inactive), the GI50 (NCI/ADR-RES) was 39.4 µM (inactive) and the GI50 (MCF7) was 41.4 µM (inactive). The GI50 (SR) was 30.8 µM (inactive), the GI50 (SK-MEL-5) was 31.3 µM (inactive) and the GI50 (OVCAR-8) was 75.3 µM (inactive). For the same compound, the GI50 (NCI-H522) was 42.9 µM (inactive), the GI50 (COLO 205) was 33 µM (inactive) and the GI50 (LOX IMVI) was > 100 µM (inactive). The GI50 (BT-549) was 44.8 µM (inactive), the GI50 (IGROV-1) was 56.8 µM (inactive) and the GI50 (OVCAR-5) was 65.6 µM (inactive). For the same compound, the GI50 (HCT-15) was 43.6 µM, the GI50 (SW-620) was 58.1 µM (inactive) and the GI50 (PC-3) was 49.3 µM (inactive). The GI50 (T47D) was 26.5 µM (inactive), the GI50 (SK-MEL-2) was 40.9 µM (inactive) and the GI50 (SF-268) was > 100 µM (inactive). For the same compound, the GI50 (SN12C) was > 100 µM (inactive), the GI50 (HOP-62) was 20.5 µM (inactive) and the GI50 (OVCAR-3) was 25.1 µM (inactive). The GI50 (UACC-257) was 31.6 µM (inactive), the GI50 (MDA-N) was 31.2 µM (inactive) and the GI50 (SK-MEL-28) was > 100 µM (inactive). The GI50 (NCI-H23) was 57.1 µM (inactive), the GI50 (NCI-H226) was 32.9 µM (inactive) and the GI50 (SF-539) was > 100 µM (inactive). For the same compound, the GI50 (CAKI-1) was 48.3 µM (inactive), the GI50 (HT-29) was 35.8 µM (inactive) and the GI50 (HCC 2998) was 22.1 µM (inactive). For the same compound, the GI50 (HL-60) was 33.8 µM (inactive), the GI50 (SF-295) was 33.4 µM (inactive) and the GI50 (SNB-75) was 30.1 µM (inactive). The GI50 (TK-10) was 63.2 µM (inactive), the GI50 (EKVX) was 27.9 µM (inactive) and the GI50 (A549) was 55.6 µM (inactive). For the same compound, the GI50 (UACC-62) was 15.2 µM (inactive), the GI50 (RPMI-8226) was 14.6 µM (inactive) and the GI50 (OVCAR-4) was 37.9 µM (inactive). For the same compound, the GI50 (SNB-19) was > 100 µM (inactive), the GI50 (K562) was 21.3 µM (inactive) and the GI50 (ACHN) was 84.3 µM (inactive). The GI50 (KM12) was 34.8 µM (inactive), the GI50 (M14) was 36 µM (inactive) and the GI50 (DU-145) was > 100 µM (inactive). For the same compound, the GI50 (RXF 393) was 52.1 µM (inactive).

With COC(=O)Cc1cc(O)c(C/C=C(\C)CC/C=C(\C)C(O)C(=O)C=C(C)C)cc1O (configuration not stated) the GI50 (SK-OV-3) was 29.7 µM (inactive), the GI50 (NCI-H460) was 20.6 µM (inactive) and the GI50 (CCRF-CEM) was 2.93 µM (inactive). The GI50 (Hs-578T) was 41 µM (inactive), the GI50 (MDA-MB-231) was 34.7 µM (inactive) and the GI50 (MOLT-4) was 14.5 µM (inactive). For the same compound, the GI50 (Malme-3M) was 17.3 µM (inactive), the GI50 (786-0) was 38.6 µM (inactive) and the GI50 (HOP-92) was 20.4 µM (inactive). The GI50 (UO-31) was 21.6 µM (inactive), the GI50 (U-251) was 18.7 µM (inactive) and the GI50 (HCT-116) was 17.3 µM (inactive). For the same compound, the GI50 (MDA-MB-435) was 20.6 µM (inactive), the GI50 (NCI/ADR-RES) was 22.5 µM (inactive) and the GI50 (MCF7) was 32.1 µM (inactive). The GI50 (SR) was 15.6 µM (inactive), the GI50 (SK-MEL-5) was 17.1 µM (inactive) and the GI50 (OVCAR-8) was 23.2 µM (inactive). For the same compound, the GI50 (NCI-H522) was 21.1 µM (inactive), the GI50 (COLO 205) was 24.8 µM (inactive) and the GI50 (BT-549) was 25.6 µM (inactive). The GI50 (IGROV-1) was 23.3 µM (inactive), the GI50 (OVCAR-5) was 33.7 µM (inactive) and the GI50 (SW-620) was 31.3 µM (inactive). The GI50 (PC-3) was 21.9 µM (inactive), the GI50 (T47D) was 16.5 µM (inactive) and the GI50 (SK-MEL-2) was 24.6 µM (inactive). For the same compound, the GI50 (SF-268) was 19.7 µM (inactive), the GI50 (SN12C) was 22.4 µM (inactive) and the GI50 (HOP-62) was 19.6 µM (inactive). The GI50 (OVCAR-3) was 19.4 µM (inactive), the GI50 (UACC-257) was 30.7 µM (inactive) and the GI50 (MDA-N) was 35.5 µM (inactive). For the same compound, the GI50 (NCI-H23) was 39.4 µM (inactive), the GI50 (NCI-H226) was 26.3 µM (inactive) and the GI50 (SF-539) was 20.3 µM (inactive). The GI50 (HT-29) was 27.4 µM (inactive), the GI50 (HL-60) was 2.76 µM (inactive) and the GI50 (SF-295) was 24.2 µM (inactive). The GI50 (SNB-75) was 18.2 µM (inactive), the GI50 (EKVX) was 23.6 µM (inactive) and the GI50 (A549) was 25.6 µM (inactive). For the same compound, the GI50 (UACC-62) was 19.9 µM (inactive), the GI50 (RPMI-8226) was 26.7 µM (inactive) and the GI50 (OVCAR-4) was 40.4 µM (inactive). For the same compound, the GI50 (SNB-19) was 32 µM (inactive), the GI50 (K562) was 15.6 µM (inactive) and the GI50 (ACHN) was 24.9 µM (inactive). The GI50 (KM12) was 20.7 µM (inactive), the GI50 (M14) was 26.3 µM (inactive) and the GI50 (DU-145) was 45.4 µM (inactive). The GI50 (RXF 393) was 14.5 µM (inactive).

Fc1cccc(F)c1C1SCc2nc3cc(Cl)ccc3n21 (configuration not stated) was tested, and the GI50 (SK-OV-3) was 80.2 µM (inactive), the GI50 (NCI-H460) was 41.5 µM (inactive) and the GI50 (CCRF-CEM) was 25.6 µM (inactive). For the same compound, the GI50 (Hs-578T) was > 44.7 µM (inactive), the GI50 (MDA-MB-231) was 55.1 µM (inactive) and the GI50 (MOLT-4) was 14 µM (inactive). The GI50 (Malme-3M) was 17 µM (inactive), the GI50 (786-0) was 25.7 µM (inactive) and the GI50 (HOP-92) was 36.6 µM (inactive). The GI50 (UO-31) was 19.2 µM (inactive), the GI50 (U-251) was 22 µM (inactive) and the GI50 (HCT-116) was 18.5 µM (inactive). The GI50 (MDA-MB-435) was 33 µM (inactive), the GI50 (NCI/ADR-RES) was 24.2 µM (inactive) and the GI50 (MCF7) was 15 µM (inactive). The GI50 (SR) was 17.8 µM (inactive), the GI50 (SK-MEL-5) was 16 µM (inactive) and the GI50 (OVCAR-8) was 58.7 µM (inactive). The GI50 (NCI-H522) was 39.7 µM (inactive), the GI50 (COLO 205) was 17.9 µM (inactive) and the GI50 (LOX IMVI) was 18.5 µM (inactive). The GI50 (BT-549) was 21.9 µM (inactive), the GI50 (IGROV-1) was > 42.9 µM (inactive) and the GI50 (OVCAR-5) was 84.1 µM (inactive). For the same compound, the GI50 (HCT-15) was 28.6 µM, the GI50 (SW-620) was 38.7 µM (inactive) and the GI50 (PC-3) was 34.4 µM (inactive). For the same compound, the GI50 (T47D) was 31.2 µM (inactive), the GI50 (SK-MEL-2) was 30.6 µM (inactive) and the GI50 (SF-268) was > 100 µM (inactive). The GI50 (SN12C) was 56.5 µM (inactive), the GI50 (HOP-62) was > 100 µM (inactive) and the GI50 (OVCAR-3) was 46 µM (inactive). The GI50 (UACC-257) was 32.8 µM (inactive), the GI50 (MDA-N) was 32.8 µM (inactive) and the GI50 (SK-MEL-28) was 50.8 µM (inactive). For the same compound, the GI50 (NCI-H23) was 28.5 µM (inactive), the GI50 (SF-539) was 80.9 µM (inactive) and the GI50 (CAKI-1) was 16.6 µM (inactive). For the same compound, the GI50 (HT-29) was 15.2 µM (inactive), the GI50 (HCC 2998) was 22.7 µM (inactive) and the GI50 (HL-60) was 14 µM (inactive). For the same compound, the GI50 (SF-295) was 33.2 µM (inactive), the GI50 (SNB-75) was 40.1 µM (inactive) and the GI50 (TK-10) was > 100 µM (inactive). For the same compound, the GI50 (EKVX) was 36.6 µM (inactive), the GI50 (A549) was 31.3 µM (inactive) and the GI50 (UACC-62) was 37.9 µM (inactive). For the same compound, the GI50 (RPMI-8226) was 22.7 µM (inactive), the GI50 (OVCAR-4) was 35.9 µM (inactive) and the GI50 (SNB-19) was 92.5 µM (inactive). The GI50 (K562) was 35.1 µM (inactive), the GI50 (ACHN) was 31.3 µM (inactive) and the GI50 (KM12) was 22.8 µM (inactive). For the same compound, the GI50 (M14) was 31 µM (inactive), the GI50 (DU-145) was 68.5 µM (inactive) and the GI50 (RXF 393) was 48.8 µM (inactive).
